In US20260217730A1, “PROTEOLYSIS TARGETING CHIMERA COMPOUND” (BEIJING TIDE PHARMACEUTICAL CO., LTD., priority 2023, published 2026):

Assays:
[1] = target: T1, SHP2 (Homo sapiens, UniProt Q06124); test: Western blot, degradation of SHP2 in vitro; type: cell-based; settings: degradation of SHP2 in SUM159 cells, 24 hours with compound
T1 construct: endogenous in cells; host or cells: SUM159 triple-negative breast cancer cells
T1 sequence (Q06124 1-593): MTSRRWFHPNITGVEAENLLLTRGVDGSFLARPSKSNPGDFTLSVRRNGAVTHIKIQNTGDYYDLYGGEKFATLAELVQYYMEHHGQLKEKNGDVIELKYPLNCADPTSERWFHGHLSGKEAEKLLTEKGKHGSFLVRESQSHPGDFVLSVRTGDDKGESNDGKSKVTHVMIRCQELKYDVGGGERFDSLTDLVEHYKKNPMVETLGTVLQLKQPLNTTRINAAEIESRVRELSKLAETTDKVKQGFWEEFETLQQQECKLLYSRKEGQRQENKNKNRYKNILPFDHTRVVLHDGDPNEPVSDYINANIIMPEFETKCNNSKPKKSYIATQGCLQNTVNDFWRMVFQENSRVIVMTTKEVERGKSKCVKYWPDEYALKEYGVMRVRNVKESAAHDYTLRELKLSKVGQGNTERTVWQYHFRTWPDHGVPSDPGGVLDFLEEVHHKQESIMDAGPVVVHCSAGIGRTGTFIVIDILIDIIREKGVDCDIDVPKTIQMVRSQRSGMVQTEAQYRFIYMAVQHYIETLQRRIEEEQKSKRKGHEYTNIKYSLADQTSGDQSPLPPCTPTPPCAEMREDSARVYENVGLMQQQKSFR
Protocol: 1. The Biological Activity of Compounds was Determined by Western Blot Method Using the Following Method:
Reagents: Complete 1640 medium was purchased from Gibco. Fetal bovine serum was purchased from ThermoFisher. Trypsin was produced by ThermoFisher. SHP-2 antibody was produced by CST.
(§1) Cell line: SUM159 triple-negative breast cancer cell line was established by Rovera.
Method for assay: Cells growth in the logarithmic phase were collected and suspended in a 1640 medium containing 10% fetal bovine serum, which was then gently pipetted into a single-cell suspension. Viable cells were counted under microscope. 9 mL of the cell suspension was seeded and cultured in a 10 cm culture dish at a final concentration of 2×10^5 cells/mL. After cells were pre-cultured for 24 hours at 37° C. and 5% CO2, different concentrations of solutions of the compounds of the present disclosure in DMSO were added (the final concentration of DMSO was no more than 0.5%), and the negative control group was added with the same volume of DMSO alone. After cultured for another 24 hours, all cells were collected and washed with PBS. The cells were lysed with RIPA lysis buffer, and the lysates were collected into a 1.7 mL centrifuge tube. The proteins were fully denatured after heating in the metal bath at 95° C. for 10 minutes. After loading the samples onto the gel for Western blotting, electrophoresis was performed at a constant voltage of 100V until the band of bromophenol blue reached the terminal point. The proteins were transferred onto a cellulose acetate membrane using the wet transfer method at a constant current of 300-500 mA for 45 minutes, and the proteins were blocked with 5% BSA at room temperature for 1-2 hours. The proteins were incubated with primary antibody diluted 1:500 to 1:8000 at room temperature for 2 hours, and then washed three times. Subsequently, the proteins were incubated with secondary antibody at room temperature for 1 hour. The detection of proteins was performed using ultrasensitive ECL luminescent liquid such as Enlight, and signals were captured using an automatic X-ray film developing machine. For the test results, see the in vitro Western Blot experiment of Example 1 and the in vitro Western Blot experiment of Example 3.
The compounds of the present disclosure have good in vitro anti-solid tumor and anti-blood tumor activities and have low toxicity to normal cells.

[2] = PAMPA experiment; type: in vitro ADME; settings: 1.8% lecithin membrane, drug test solution 10 μM, 37° C., 16 hours
Protocol: Reagents: lecithin, n-dodecane, HEPES, dimethyl sulfoxide (DMSO), acetonitrile
Instrument and equipment: Multiscreen 96-well plate (up Merck Millipore), Multiscreen 96-well plate (down Merck Millipore), electronic analytical balance, constant temperature incubator, high performance liquid chromatography-mass spectrometry (LC-MS)
Method for operation: Preparation of PAMPA artificial membrane: about 18 mg of lecithin was weighed accurately, and placed into a 1.5 mL EP tube. 1 mL of n-dodecane was added. The mixture was dissolved by ultrasonication, and then thoroughly mixed to obtain a 1.8% lecithin membrane.
The upper layer of the PAMPA model was the plate lid, the middle layer was the 96-well filter plate (donor plate), and the lower layer was the accepter plate. 5 μL of the above 1.8% lecithin membrane was added to the filter membrane of the donor plate, and then 150 μL of the drug test solution (10 μM) was added. 300 μL of HEPES solution was added to each well of the accepter plate (completed within 10 minutes). The donor plate was slowly placed onto the accepter plate and incubated at 37° C. for 16 hours.
LC-MS detection: 100 μL of the positive control and the test compound was weighed respectively, to which 100 μL of acetonitrile-DMSO solution [acetonitrile-DMSO (4:1)] was added. The mixture was mixed well, and detected by LC-MS at OH and 16H. The corresponding molecular ion peak was extracted and the peak area was obtained; After the PAMPA model was incubated at 37° C. for 16 h, 100 μL of the test solution in the donor plate and the accepter plate was weighed respectively, to which 100 μL of acetonitrile-DMSO solution [acetonitrile-DMSO (4:1)] was added. The mixture was mixed well, and detected by LC-MS. The corresponding molecular ion peak was extracted, the peak area was obtained, and the concentration was calculated.

[3] = system: SUM159 triple-negative breast cancer cell line; test: CCK8 method, cell viability; type: cell-based; settings: SUM159 cells, 72 hours, CCK8 absorbance
Protocol: 2. The Biological Activity of Compounds was Determined by CCK8 Method Using the Following Method:
Reagents: Complete RPMI 1640 medium was purchased from Gibco. Fetal bovine serum was purchased from ThermoFisher. Trypsin was produced by ThermoFisher. SHP-2 antibody was produced by CST. CCK8 was produced by abcam.
as §1
Method for assay: Cells growth in the logarithmic phase were collected and suspended in a RPMI 1640 medium containing 10% fetal bovine serum, which was then gently pipetted into a single-cell suspension. Viable cells were counted under microscope. The cells were seeded into a 96-well plate at a density of 3-6*10^3 cells per well and cultured in an incubator for 24 hours. Test compounds were diluted in multiples, and then the cell culture supernatant was added. The cells were cultured for another 72 hours, and 10 μL of CCK8 detection solution was added to each well. After incubating for 1-4 hours, the absorbance was measured using a microplate reader.

Structure (SMILES)	DC50 [1] [µM]	PAMPA (−Log Pe) [2]	IC50 [3] [µM]
O=C1OCc2ccc3c(=O)cc(oc3c2)-c2ccc(cc2Cl)OCCCC/C=C/CCCCOc2ccc3c(c2)CN(C3=O)C2CCC(=O)N(COC(=O)c3cccc1c3)C2=O (centres unmarked) [Example 6]	0.01	8.55	> 5
O=C1OCc2cc3oc(cc(=O)c3cc2I)-c2ccc(cc2Cl)OCCOC/C=C\COCCOc2ccc3c(c2)CN(C3=O)C2CCC(=O)N(COC1=O)C2=O (centres unmarked) [Example 3]	0.037	5.94	0.00743
O=C1CC(=O)OCN2C(=O)CCC(C2=O)N2Cc3cc(ccc3C2=O)OCCOC/C=C\COCCOc2ccc(c(Cl)c2)-c2cc(=O)c3ccc(cc3o2)CO1 (centres unmarked) [Example 7]	0.188		0.0231
O=C1CC(=O)OCN2C(=O)CCC(C2=O)N2Cc3cc(ccc3C2=O)OCCCC/C=C\CCCCOc2ccc(c(Cl)c2)-c2cc(=O)c3ccc(cc3o2)CO1 (centres unmarked) [Example 4]		6.11	0.718
CN1CC(=O)OCc2ccc3c(=O)cc(oc3c2)-c2ccc(cc2Cl)OCCOCCCCOCCOc2ccc3c(c2)CN(C3=O)C2CCC(=O)N(COC(=O)C1)C2=O (centres unmarked) [Example 10]	0.00594	5.56	0.0035
O=C1OCc2cc3oc(cc(=O)c3cc2I)-c2ccc(cc2Cl)OCCOC/C=C\COCCOc2ccc3c(c2)CN(C3=O)C2CCC(=O)N(COC(=O)c3cccc1c3)C2=O (centres unmarked) [Example 5]	0.5	5.78	0.2
N[C@H]1CCC(=O)OCc2ccc3c(=O)cc(oc3c2)-c2ccc(cc2Cl)OCCOC/C=C/COCCOc2ccc3c(c2)CN(C3=O)C2CCC(=O)N(COC1=O)C2=O (some centres unmarked) [Example 8]		4.68	0.00533
O=C1CC(=O)OCN2C(=O)CCC(C2=O)N2Cc3cc(ccc3C2=O)OCCOC/C=C\COCCOc2ccc(c(Cl)c2)-c2cc(=O)c3cc(I)c(cc3o2)CO1 (centres unmarked) [Example 1]	0.21	6.71	0.0288
O=C1CCC2C(=O)N1COP(=O)(O)OCc1cc3oc(cc(=O)c3cc1I)-c1ccc(cc1Cl)OCCOC/C=C\COCCOc1ccc3c(c1)C(=O)N2C3=O (centres unmarked) [Example 2]		6.0	1
CN1CC(=O)OCc2ccc3c(=O)cc(oc3c2)-c2ccc(cc2Cl)OCCOC/C=C/COCCOc2ccc3c(c2)CN(C3=O)C2CCC(=O)N(COC(=O)C1)C2=O (centres unmarked) [Example 9]	0.00421	5.52	0.00239
